Data on two molecules can be found in paper PMC12175894 (Science Advances, 2025).

One data set deals with 5-HT1ER (Homo sapiens, UniProt P28566). The experiment in a line: BRET Gαi1 activation.
Data set [1] has as its target T1, 5-HT1AR + Gαi1 (Homo sapiens, UniProt P08908). As to the kind of experiment: cell-based.
Another data set deals with T2, 5-HT1AR + Gαi2 (Homo sapiens, UniProt P08908).
T2 construct: host or cells: HEK293AΔGi/o
The experiment in a line: GloSensor cAMP in HEK293AΔGi/o co-transfected with Gαi2. Format: cell-based.

For a further data set, the target named is α2CR (Homo sapiens, UniProt P18825). The experiment in a line: BRET Gαi1 activation.
Another data set deals with α2AR (Homo sapiens, UniProt P08913). The experiment in a line: BRET Gαi1 activation. In general terms: In BRET a luciferase serves as donor, and the signal depends on an acceptor being close.
The nature of data set [2]: Metabolic stability with rat liver microsomes. Format: in vitro ADME. A general note: Liver microsomes are a subcellular fraction often used to study metabolism.
In a further data set the target is 5-HT1DR (Homo sapiens, UniProt P28221). The experiment in a line: BRET Gαi1 activation.
Data set [3] deals with T3, 5-HT1AR (Homo sapiens, UniProt P08908).
T3 sequence (P08908 1-422): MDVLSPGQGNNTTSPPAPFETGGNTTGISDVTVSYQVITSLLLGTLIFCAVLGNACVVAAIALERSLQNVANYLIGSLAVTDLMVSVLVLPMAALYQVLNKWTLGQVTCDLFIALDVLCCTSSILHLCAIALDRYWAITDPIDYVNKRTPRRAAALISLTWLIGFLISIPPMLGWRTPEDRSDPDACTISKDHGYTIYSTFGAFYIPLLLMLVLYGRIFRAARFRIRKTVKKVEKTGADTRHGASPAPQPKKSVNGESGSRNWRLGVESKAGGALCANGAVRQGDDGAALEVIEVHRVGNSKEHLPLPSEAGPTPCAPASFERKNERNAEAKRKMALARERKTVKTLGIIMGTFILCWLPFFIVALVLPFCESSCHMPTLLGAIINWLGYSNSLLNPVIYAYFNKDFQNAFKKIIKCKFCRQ
As to the kind of experiment: IP-One accumulation with hybrid Gαqi in HEK293T. Format: cell-based. Also noted: host or cells: HEK293T, HEK293A, HEK293AΔGs, HEK293AΔGi/o, HEK293AΔARRB1/B2.

The target in a further data set is opioid δOR (Homo sapiens, UniProt P41143). The experiment in a line: Radioligand displacement, [3H]diprenorphine. (Displacement assays read how much labelled ligand stays bound in the presence of the test substance.)
The target of the next data set is opioid κOR (Homo sapiens, UniProt P41145). As to the kind of experiment: Radioligand displacement, [3H]diprenorphine.
The test system of data set [4] is 5-HT1AR + Gαi1.
Data set [5] addresses T1, 5-HT1AR + Gαi1.
A further data set deals with muscarinic M3 (Homo sapiens, UniProt P20309). As to the kind of experiment: Radioligand displacement, [3H]NMS.
The target of data set [6] is T3, 5-HT1AR. The experiment in a line: cell-based.
Another data set concerns mice. As to the kind of experiment: Elevated plus maze. Format: in vivo, mouse.
The next data set concerns the target 5-HT1FR (Homo sapiens, UniProt P30939). As to the kind of experiment: BRET Gαi1 activation.
The target of a further data set is opioid µOR (Homo sapiens, UniProt P35372). The experiment in a line: Radioligand displacement, [3H]diprenorphine.
The target of the next data set is 5-HT1BR (Homo sapiens, UniProt P28222). As to the kind of experiment: BRET Gαi1 activation.
For the next data set, the target named is T4, 5-HT1AR Q97^2.65A (Homo sapiens, UniProt P08908, Q97A).
T4 sequence (P08908 1-422 Q97A): T3 sequence (P08908 1-422) with Q97A
The experiment in a line: Radioligand competition, displacement of [3H]WAY100635. Format: binding. The following applies: 5-HT1AR Q97A; HEK 293T membranes; read-out: Ki [nM ± SEM].

For a further data set, the target named is orexin OX1 (Homo sapiens, UniProt O43613). As to the kind of experiment: Radioligand displacement, [3H]SB674042.
The target of data set [7] is T3, 5-HT1AR. As to the kind of experiment: PathHunter β-arrestin 2 inhibition assay, stimulated with serotonin.
In a further data set the target is T5, 5-HT1AR wildtype (Homo sapiens, UniProt P08908).
T5 construct: host or cells: HEK293T, HEK293A, HEK293AΔGs, HEK293AΔGi/o, HEK293AΔARRB1/B2
T5 sequence (P08908 1-422): T3 sequence (P08908 1-422)
The experiment in a line: GloSensor cAMP accumulation in HEK293AΔGi/o. The following applies: read-out: Emax [% ± SEM], cAMP accumulation. Format: cell-based.

Positions count from the first letter of the chain named.

opioid µOR, sequence (P35372 whole entry): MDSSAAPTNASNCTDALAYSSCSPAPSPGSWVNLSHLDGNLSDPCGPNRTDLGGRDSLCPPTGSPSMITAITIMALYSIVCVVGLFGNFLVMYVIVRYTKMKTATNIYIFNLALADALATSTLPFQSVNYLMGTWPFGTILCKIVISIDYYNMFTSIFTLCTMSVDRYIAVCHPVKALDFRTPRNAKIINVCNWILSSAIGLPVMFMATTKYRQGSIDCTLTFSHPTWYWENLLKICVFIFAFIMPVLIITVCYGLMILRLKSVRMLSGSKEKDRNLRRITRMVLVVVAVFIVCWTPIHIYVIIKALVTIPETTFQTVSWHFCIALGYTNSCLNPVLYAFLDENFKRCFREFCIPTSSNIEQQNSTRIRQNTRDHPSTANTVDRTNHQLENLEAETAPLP
opioid κOR, sequence (P41145 whole entry): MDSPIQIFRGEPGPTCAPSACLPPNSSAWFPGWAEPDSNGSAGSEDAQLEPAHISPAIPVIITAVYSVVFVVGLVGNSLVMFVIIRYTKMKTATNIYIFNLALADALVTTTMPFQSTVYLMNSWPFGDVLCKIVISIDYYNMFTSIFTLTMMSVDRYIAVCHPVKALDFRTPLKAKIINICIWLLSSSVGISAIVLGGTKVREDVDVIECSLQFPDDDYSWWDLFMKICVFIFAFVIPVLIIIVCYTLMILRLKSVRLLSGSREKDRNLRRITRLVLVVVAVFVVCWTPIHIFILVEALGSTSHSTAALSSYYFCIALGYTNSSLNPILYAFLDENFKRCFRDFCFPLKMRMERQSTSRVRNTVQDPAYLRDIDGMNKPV
5-HT1DR, sequence (P28221 whole entry): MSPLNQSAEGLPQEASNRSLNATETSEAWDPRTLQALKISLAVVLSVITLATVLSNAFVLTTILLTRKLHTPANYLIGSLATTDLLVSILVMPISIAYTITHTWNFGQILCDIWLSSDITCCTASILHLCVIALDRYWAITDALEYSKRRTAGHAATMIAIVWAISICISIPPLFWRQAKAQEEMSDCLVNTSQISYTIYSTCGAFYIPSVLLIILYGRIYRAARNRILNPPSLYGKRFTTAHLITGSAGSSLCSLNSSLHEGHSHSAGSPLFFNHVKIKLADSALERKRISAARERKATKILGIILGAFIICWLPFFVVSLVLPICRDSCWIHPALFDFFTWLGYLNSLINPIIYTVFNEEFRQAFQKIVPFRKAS
orexin OX1, sequence (O43613 whole entry): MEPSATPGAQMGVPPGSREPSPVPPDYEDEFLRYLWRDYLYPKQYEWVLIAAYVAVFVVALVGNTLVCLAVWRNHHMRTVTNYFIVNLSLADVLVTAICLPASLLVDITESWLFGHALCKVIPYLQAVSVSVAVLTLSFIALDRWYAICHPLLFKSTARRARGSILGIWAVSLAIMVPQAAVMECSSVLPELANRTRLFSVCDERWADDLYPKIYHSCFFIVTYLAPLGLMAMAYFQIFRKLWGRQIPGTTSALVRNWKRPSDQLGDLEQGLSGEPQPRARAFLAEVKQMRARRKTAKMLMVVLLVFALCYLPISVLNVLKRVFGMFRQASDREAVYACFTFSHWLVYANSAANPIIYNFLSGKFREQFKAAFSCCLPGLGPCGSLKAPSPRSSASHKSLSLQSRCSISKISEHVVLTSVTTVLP
opioid δOR, sequence (P41143 whole entry): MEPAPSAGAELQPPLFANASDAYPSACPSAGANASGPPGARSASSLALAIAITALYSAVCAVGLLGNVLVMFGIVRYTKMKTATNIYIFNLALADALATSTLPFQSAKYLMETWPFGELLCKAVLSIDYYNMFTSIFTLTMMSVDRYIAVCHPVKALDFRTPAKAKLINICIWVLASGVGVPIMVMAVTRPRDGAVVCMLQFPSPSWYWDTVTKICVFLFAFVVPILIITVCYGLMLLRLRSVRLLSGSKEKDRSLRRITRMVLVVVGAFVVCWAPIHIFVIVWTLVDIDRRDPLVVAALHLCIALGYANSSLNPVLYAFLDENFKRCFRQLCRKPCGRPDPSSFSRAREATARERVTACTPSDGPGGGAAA
5-HT1BR, sequence (P28222 whole entry): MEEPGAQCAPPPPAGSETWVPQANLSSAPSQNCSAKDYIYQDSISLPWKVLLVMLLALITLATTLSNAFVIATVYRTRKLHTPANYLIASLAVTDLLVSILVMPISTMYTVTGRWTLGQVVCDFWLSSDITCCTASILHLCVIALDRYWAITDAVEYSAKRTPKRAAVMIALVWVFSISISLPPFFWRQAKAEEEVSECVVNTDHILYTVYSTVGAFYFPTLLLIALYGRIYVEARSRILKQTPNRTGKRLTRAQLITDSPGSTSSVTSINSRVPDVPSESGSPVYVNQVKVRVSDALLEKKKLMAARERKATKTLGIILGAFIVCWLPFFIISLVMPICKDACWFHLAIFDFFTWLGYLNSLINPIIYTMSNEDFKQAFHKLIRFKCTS
muscarinic M3, sequence (P20309 whole entry): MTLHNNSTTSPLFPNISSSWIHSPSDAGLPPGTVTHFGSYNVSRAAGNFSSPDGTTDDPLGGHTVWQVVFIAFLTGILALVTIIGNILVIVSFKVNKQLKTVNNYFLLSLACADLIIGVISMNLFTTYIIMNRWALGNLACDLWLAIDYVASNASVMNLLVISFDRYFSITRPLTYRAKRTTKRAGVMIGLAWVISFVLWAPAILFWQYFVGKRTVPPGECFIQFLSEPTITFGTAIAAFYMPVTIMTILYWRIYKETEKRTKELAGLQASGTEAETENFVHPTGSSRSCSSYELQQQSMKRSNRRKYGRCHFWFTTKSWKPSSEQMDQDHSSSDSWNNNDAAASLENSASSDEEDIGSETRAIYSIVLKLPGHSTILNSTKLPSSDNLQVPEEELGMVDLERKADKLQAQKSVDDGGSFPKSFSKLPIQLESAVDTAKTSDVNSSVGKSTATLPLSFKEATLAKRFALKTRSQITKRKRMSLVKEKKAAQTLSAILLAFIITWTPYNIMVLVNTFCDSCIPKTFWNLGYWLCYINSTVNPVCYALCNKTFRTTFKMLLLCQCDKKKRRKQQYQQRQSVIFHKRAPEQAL
T1 sequence (P63096 2-354 partner limits assumed, one chain of several): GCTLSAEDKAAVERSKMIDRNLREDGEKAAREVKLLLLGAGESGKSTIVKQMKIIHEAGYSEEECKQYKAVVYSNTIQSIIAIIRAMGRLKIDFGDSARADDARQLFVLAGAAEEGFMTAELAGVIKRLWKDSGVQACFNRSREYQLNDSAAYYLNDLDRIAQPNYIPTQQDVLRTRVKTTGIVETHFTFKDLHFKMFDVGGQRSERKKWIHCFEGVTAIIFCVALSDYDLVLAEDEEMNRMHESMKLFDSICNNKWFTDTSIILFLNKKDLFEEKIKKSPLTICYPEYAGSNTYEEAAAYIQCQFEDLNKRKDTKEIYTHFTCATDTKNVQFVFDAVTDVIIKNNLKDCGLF
T2 sequence (P04899 2-355 partner limits assumed, one chain of several): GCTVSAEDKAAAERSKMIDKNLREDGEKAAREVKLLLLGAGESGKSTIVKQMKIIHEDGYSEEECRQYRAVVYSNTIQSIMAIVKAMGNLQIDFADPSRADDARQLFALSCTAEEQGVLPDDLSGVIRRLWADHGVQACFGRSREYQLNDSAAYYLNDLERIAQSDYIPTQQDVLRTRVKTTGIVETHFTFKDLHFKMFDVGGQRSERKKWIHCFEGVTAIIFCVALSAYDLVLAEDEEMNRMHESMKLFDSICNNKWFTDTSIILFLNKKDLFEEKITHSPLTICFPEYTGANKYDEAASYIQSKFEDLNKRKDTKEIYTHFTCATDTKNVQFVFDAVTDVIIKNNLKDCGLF
5-HT1FR, sequence (P30939 whole entry): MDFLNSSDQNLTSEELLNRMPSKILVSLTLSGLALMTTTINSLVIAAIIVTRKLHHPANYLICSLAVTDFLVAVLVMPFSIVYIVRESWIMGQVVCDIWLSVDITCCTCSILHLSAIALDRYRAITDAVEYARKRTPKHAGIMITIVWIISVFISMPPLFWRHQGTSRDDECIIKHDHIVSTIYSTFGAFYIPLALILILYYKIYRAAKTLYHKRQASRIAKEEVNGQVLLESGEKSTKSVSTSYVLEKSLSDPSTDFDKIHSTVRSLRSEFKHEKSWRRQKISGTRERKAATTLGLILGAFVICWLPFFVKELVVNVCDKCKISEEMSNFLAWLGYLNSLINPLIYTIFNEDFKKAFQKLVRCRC
5-HT1ER, sequence (P28566 whole entry): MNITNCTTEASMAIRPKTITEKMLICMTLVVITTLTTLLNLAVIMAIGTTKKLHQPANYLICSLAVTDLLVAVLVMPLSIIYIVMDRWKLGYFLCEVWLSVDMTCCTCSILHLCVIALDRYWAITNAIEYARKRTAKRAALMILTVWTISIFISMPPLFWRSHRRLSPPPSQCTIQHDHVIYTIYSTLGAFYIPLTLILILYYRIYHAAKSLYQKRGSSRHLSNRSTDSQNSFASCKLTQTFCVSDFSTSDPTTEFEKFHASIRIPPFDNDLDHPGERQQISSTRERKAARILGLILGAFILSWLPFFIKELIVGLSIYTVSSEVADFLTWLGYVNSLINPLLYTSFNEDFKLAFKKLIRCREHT
α2AR, sequence (P08913 whole entry): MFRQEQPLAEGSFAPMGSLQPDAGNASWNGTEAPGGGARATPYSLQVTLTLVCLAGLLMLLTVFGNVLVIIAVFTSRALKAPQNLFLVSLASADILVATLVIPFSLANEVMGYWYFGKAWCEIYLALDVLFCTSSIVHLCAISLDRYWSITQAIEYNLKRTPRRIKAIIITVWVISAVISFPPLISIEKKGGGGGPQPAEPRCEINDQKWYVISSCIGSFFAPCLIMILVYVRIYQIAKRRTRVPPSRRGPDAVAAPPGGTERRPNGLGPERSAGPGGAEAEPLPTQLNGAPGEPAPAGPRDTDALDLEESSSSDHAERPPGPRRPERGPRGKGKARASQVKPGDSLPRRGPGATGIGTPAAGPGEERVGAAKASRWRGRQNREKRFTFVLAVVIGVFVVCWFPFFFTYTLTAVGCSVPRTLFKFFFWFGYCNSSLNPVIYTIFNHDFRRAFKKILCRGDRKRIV

A word on the Emax: it is the maximal effect, on the per cent scale that the assay sets. As usually defined, the EC50 is the concentration giving half of the maximal effect. As a reminder, the Ki is a dissociation constant, usually derived from enzyme kinetics or from competition with a known ligand. The IC50 is the concentration that inhibits the measured activity by half. Low readings indicate greater potency, high ones weaker potency. Consider `COc1ccccc1OCCNCCCOc1ccc2c(c1)NC(=O)CO2` [ST171], for which the Emax is less than 10% at 5-HT1ER; 57 ± 7% on 5-HT1AR + Gαi2; 54% at 5-HT1DR; 43% on 5-HT1AR [3] (HEK-293T, read-out: Emax[Gqi], IP accumulation); 57 to 80% in the data set on 5-HT1AR + Gαi1 [4]; 68 ± 3% on 5-HT1AR + Gαi1 [5]. In addition, the results for the Emax on 5-HT1FR and on 5-HT1BR were less than 10% and 94%, respectively. In addition, the EC50 on 5-HT1AR + Gαi1 [1] amounted to 0.0025 ± 0.0007 µM; on 5-HT1AR + Gαi2 (HEK293AΔGi/o + Gαi2, read-out: EC50 [nM ± SEM], inhibition of cAMP accumulation), 4.4 ± 1 nM; at 5-HT1DR, 0.0057 µM; on 5-HT1AR [3] (hybrid Gαqi, HEK293T, read-out: EC50[Gqi], IP accumulation), 0.013 ± 0.0029 µM; on 5-HT1AR [6] it was 0.0016 µM; on 5-HT1BR, 0.0037 µM. Also, the intrinsic activity entry on α2CR and at α2AR was “devoid of intrinsic activity” each time. Moreover, the intact substrate remaining entry was “more than 70%” in data set [2] (after 1 h incubation) and greater than 45% in data set [2] (after 3 h incubation). In addition, the Ki was 24000 ± 3500 nM on opioid δOR (Ki [nM ± SD]); 23400 nM at opioid δOR (pKi); 6200 ± 850 nM on opioid κOR (Ki [nM ± SD]); 6280 nM at opioid κOR (pKi); 49000 ± 28000 nM at muscarinic M3 (Ki [nM ± SD]); 41500 nM at muscarinic M3 (pKi). Also, the Ki on opioid µOR (Ki [nM ± SD], µOR) is 8600 ± 2100 nM; on opioid µOR (Ki, opioid receptor family) it was greater than 5000 nM; on opioid µOR (pKi, µOR), 8430 nM; at 5-HT1AR Q97^2.65A, 63 nM; on orexin OX1 (Ki [nM ± SD]), greater than 50000 nM; at orexin OX1 (pKi), greater than 50100 nM. Also, the “time in center and open arms, plus maze” value with mice (1 or 5 mg/kg, 30 min before test) is “spent more time in the center”. In addition, the “anxiolytic effect, plus maze” value in the data set on mice (analgesic dose (10 mg/kg)) is listed as “anxiolytic effects of the drug disappeared”. Besides, the IC50 against 5-HT1AR [7] amounted to 0.0039 ± 0.0005 µM.

In the case of `Cc1ccc(CNCC2(F)CCN(C(=O)c3ccc(F)c(Cl)c3)CC2)nc1` [befiradol, reference compound], at 5-HT1AR wildtype, the Emax stood at 74 ± 3%.
